Measured values: patent US12624008B2, “4-((6-oxopyrimidin-1(6H)-yl)methyl)benzoic acid as an inducer of Z A1AT secretion for treating AATD” (CENTESSA PHARMACEUTICALS (UK) LIMITED, priority 2020, dated 2026)

Tested on: Z A1AT
Experiment: Z A1AT cell secretion assay using HEK-Z cells (ELISA of supernatant)
Assay type: cell-based, human
Conditions: HEK-Z cells, 10, 33, 100 and 333 nM, 48 h, FIG. 1 y-axis in ng/ml
Method: HEK-Z cells, a human embryonic kidney cell line stably transfected with the human Z AAT gene, were plated into 96 well plates (3.0×10^5 cells/ml with 200 μl of media/well) overnight at 37° C. in a humidified atmosphere containing 5% CO2. Following incubation cells were washed with 200 μl serum-free media three times and media was replaced with treatments in quadruplicate using vehicle, 10 μM suberanilohydroxamic acid (SAHA) or 4-((6-oxopyrimidin-1(6H)-yl)methyl)benzoic acid (at concentrations of 10, 33, 100 and 333 nM) for 48 h in a 37° C. incubator in a final volume of 200 μl. At the end of the incubation step the supernatants were removed from the wells, centrifuged at 1000×g at 4° C. for 10 min and were assayed for Z A1AT levels by ELISA (Human Serpin A1/α1-antitrypsin duo set ELISA, R&D Systems, DY1268) per manufacturer's instructions.
Briefly, a 96 well plate was coated with human A1AT capture antibody overnight at room temperature (1:180 dilution from stock, 100 μl final volume/well). […] After which, 50 μl stop solution (2M H2SO4) was added and optical density (OD) of each well was read at 450 nm with 570 nm blank subtracted from each well using a microplate reader. A 4 parameter logistic curve was constructed using GraphPad Prism 8 and Z A1AT concentrations were determined in each sample by interpolation from a standard curve and multiplying by the appropriate dilution factor.

O=C(O)c1ccc(Cn2cnccc2=O)cc1 [4-((6-oxopyrimidin-1(6H)-yl)methyl)benzoic acid]
secretion of Z A1AT (concentration of Z A1AT in the cell supernatant): increased in a dose dependent manner
